# Laboratory results reported in US20100305095A1, “Use of HPPD Inhibitors in the Treatment of Depression and/or Withdrawal Symptoms Associated with Addictive Drugs” (priority 2006, published 2010).
# Legend:
# Format in all cases: in vivo
# [1] = system: rats; test: Activity cage with automatic infrared activity monitoring (rearing, activity, mobility) in rats; conditions: 2 mg/Kg oral, after 4 hours, one hour in activity cage
# Protocol: Analysis of stimulatory effect of HPPD inhibitors as a mechanism for the treatment of withdrawal symptoms associated with an addictive drug such as nicotine. 12 rats were dosed orally with 2 mg/Kg of 2-(2-Nitro-4-Trifluoromethylbenzoyl)-1,3-Cyclohexanedione. As a control, 12 rats were orally dosed with the dosing vehicle. After 4 hours, animals were each placed in an activity cage for one hour, containing an automatic activity monitoring system with infrared beams to determine activity and mobility.
# [2] = system: plasma tyrosine, dopamine turnover and noradrenaline levels; test: Plasma tyrosine, dopamine turnover and noradrenaline levels in orally dosed rats; conditions: 2 mg/Kg oral, after 24 hours
# Protocol: 10 rats were dosed orally with 2 mg/Kg of 2-(2-Nitro-4-Trifluoromethylbenzoyl)-1,3-Cyclohexanedione. As a control, 10 rats were orally dosed with the dosing vehicle. After 24 hours, plasma tyrosine levels were identified. Dopamine levels and dopamine turnover and noradrenaline levels were also analysed.
# [3] = system: plasma tyrosine, dopamine levels and dopamine turnover; test: Plasma tyrosine, dopamine levels and dopamine turnover in orally dosed mice; conditions: 0.1 mg/Kg oral; for plasma tyrosine levels: vs vehicle control
# Protocol: Illustration of increase in levels and turnover of dopamine as a mechanism for treatment/prevention of depression and treatment of the withdrawal symptoms associated with withdrawal from an addictive drug such as cocaine. 10 mice were dosed orally with 0.1 mg/Kg of 2-(2-Nitro-4-Trifluoromethylbenzoyl)-1,3-Cyclohexanedione. As a control, 10 mice were orally dosed with the dosing vehicle. After 24 hours, plasma tyrosine levels were identified. Dopamine levels and dopamine turnover were also analysed. 10 mice were dosed orally with 0.1 mg/Kg of 2-(2-Nitro-4-Trifluoromethylbenzoyl)-1,3-Cyclohexanedione. As a control, 9 mice were orally dosed with the dosing vehicle. After 6 hours, plasma tyrosine levels were identified. Dopamine levels and dopamine turnover were also analysed.
smiles,measurement,setting,value
"O=C1CCCC(O)=C1C(=O)c1ccc(C(F)(F)F)cc1[N+](=O)[O-] [2-(2-Nitro-4-Trifluoromethylbenzoyl)-1,3-Cyclohexanedione]","active time, decrease compared with the control group",[1],~27%
same,"activity counts, decrease compared with the control group",[1],approximately 43%
same,"centre rearing counts, increase compared with the control group",[1],63%
same,effect on rearing behaviour,[1],mild stimulatory effect
same,"mean rearing counts, increase compared with the control group",[1],91%
same,"mobile time, decrease compared with the control group",[1],~49%
same,"rearing time, increase compared with the control group",[1],79%
same,dopamine turnover increase in the treated compared with the control group,[2],25%
same,noradrenaline increase compared with the mean of the controls,[2]; cortex,up to 76%
same,noradrenaline increase compared with the mean of the controls,[2]; hypothalamus,≤ 21%
same,plasma tyrosine levels,[2]; vs vehicle control,elevated
same,dopamine increase compared with the mean of the controls,[3]; after 6 hours,up to 15%
same,dopamine turnover increase compared with the mean of the controls,[3]; after 6 hours,up to 15%
same,plasma tyrosine levels,[3]; after 6 hours,elevated
same,dopamine increase compared with the mean of the controls,[3]; after 24 hours,up to 16%
same,dopamine turnover increase compared with the mean of the controls,[3]; after 24 hours,up to 27%
same,plasma tyrosine levels,[3]; after 24 hours,elevated
